We go through three compounds from publication PMC7763995 (Molecules, 2020).

One assay has as its system AChE. Further details: method as in PMID 15658850. The following applies: read-out: anti-AChE activity, IC50; cited from earlier work.
The test system of assay [1] is AChE-induced Aβ aggregation. Details: method as in PMID 15658850. The settings on record: cited from earlier work.
A further assay concerns the target T1, Equine serum BChE (Equus caballus, UniProt P81908).
T1 construct: equine serum BChE; purchased Sigma-Aldrich; host or cells: equine serum
Briefly: biochemical. As to the method: (§1) Measurements were performed with a FLUOStar Optima microplate reader (BMG Labtech, Ortenberg, Germany). Compounds were dissolved in DMSO, the incubation mixture contained 2% solvent.

The target of the next assay is T2, Human erythrocyte AChE (Homo sapiens, UniProt P22303).
T2 construct: AChE from human erythrocytes was used; purchased Sigma-Aldrich; host or cells: human erythrocytes
Briefly: biochemical. The settings on record: mean ± SEM, n = 3; n.a. = not active; read-out: Human Erythrocyte AChE, IC50. As to the method:
as §1

Another assay deals with Porcine liver CES. Briefly: In vitro CES inhibition, 4-NPA substrate. The following applies: compound concentration 20 µM; n.a. = not active. Format: biochemical. As to the method: as §1
For a further assay, the target named is T3, EeAChE PAS (Electrophorus electricus, UniProt O42275).
T3 construct: Electric eel AChE (EeAChE, type VI-S, lyophilized powder); purchased Sigma-Aldrich type VI-S; host or cells: electric eel
The class given is binding. The settings on record: compound concentration 20 µM. How it is done: Electric eel AChE (EeAChE, type VI-S, lyophilized powder, Sigma-Aldrich, Saint Louis, MO, USA) was used owing to its high degree of purification, high activity, and lower cost compared to human AChE.
The blank contained propidium iodide of the same concentration in 1 mM Tris-HCl buffer pH 8.0. The measurements were carried out in triplicate on a FLUOStar Optima microplate reader, and the results were calculated by formula (1):% Displacement = 100 − (IFAChE+ Propidium + inhibitor / IFAChE + Propidium) × 100(1) where IFAChE + Propidium is the fluorescence intensity of the propidium associated with AChE in the absence of the test compound (taken as 100%), and IFAChE + Propidium + inhibitor is the fluorescence intensity of the propidium associated with AChE in the presence of the test compound.

The nature of assay [2]: ABTS radical cation scavenging activity assay. The settings on record: 1 h incubation. How it is done:
Radical scavenging activity of the compounds was assessed using the ABTS radical decolorization assay with some modifications. ABTS was purchased from Tokyo Chemical Industry Co., Ltd. (Tokyo, Japan), potassium persulfate (dipotassium peroxodisulfate), Trolox (6-hydroxy-2,5,7,8-tetramethychroman-2-carboxylic acid), and HPLC-grade ethanol were obtained from Sigma-Aldrich. Aqueous solutions were prepared using deionized water.
The solution of cation radical ABTS^•+ was produced by incubation of ABTS with potassium persulfate in deionized water for 12–16 h at room temperature in the dark. Radical scavenging capacity of the compounds was analyzed by mixing 10 μL of compound with 240 μL of ABTS^•+ working solution in ethanol (100 μM final concentration). The reaction was monitored for an hour with an interval of 5–10 min. Data are given for 1 h of incubation of compounds with ABTS^•+. The reduction in absorbance was measured spectrophotometrically at 734 nm using a xMark microplate UV/VIS microplate spectrophotometer (Bio-Rad, Hercules, CA, USA).
Ethanol blanks were run in each assay. Values were obtained from three replicates of each sample and three independent experiments. Standard antioxidants Trolox and BHT were used as reference compounds.
Antioxidant capacity as Trolox equivalent (TEAC) values was determined as the ratio between the slopes obtained from the linear correlation of the ABTS radical absorbance with the concentrations of tested compounds and Trolox. […] The compounds were tested in the concentration range of 0.1–100 µM.

The nature of assay [3]: FRAP (ferric reducing antioxidant power) assay. The settings on record: 20 µM, 1 h incubation; ratio of concentrations of Trolox and test compound with same effect. As to the method:
The FRAP (ferric reducing antioxidant power) assay proposed by Benzie and Strain [80, 81] was modified to be performed in 96-well microplates. The FRAP reagent contained 2.5 mL of 10 mM TPTZ (2,4,6-tris(2-pyridyl)-s-triazine (Sigma-Aldrich) solution in 40 mM HCl, 2.5 mL of 20 mM FeCl3 (Sigma-Aldrich) in distilled water and 25 mL of 0.3 M acetate buffer (pH 3.6). In 96-well microplates, 10 µL aliquots of the substance under investigation (compounds 7, 8 or reference substance) dissolved in DMSO (0.5 mM) were placed in quadruplicate. The FRAP reagent (240 µL) freshly prepared and warmed to 37°C was added to three of these samples, while the same volume of acetate buffer was added to the fourth one (blank). Consequently, the concentration of the substance in a plate was 20 µM. The absorbance at 600 nm was monitored spectrophotometrically with a FLUOStar OPTIMA microplate reader at 37°C for an hour with an interval of 5–10 min. Data in Table 2 are given for 1 h of incubation of compounds with FRAP reagent. The absorbances of the blanks and those of the mixture of 240 µL FRAP reagent plus 10 µL DMSO were subtracted from the absorbances of the samples at each time interval to calculate the absorbance change. Standard antioxidants Trolox and BHT dissolved in DMSO and analyzed as described above were used as reference compounds. A calibration curve with linear formula y = 0.03x (R^2 = 0.998, p < 0.0001) was obtained for Trolox solution in DMSO in the range 2.5–100 µM and the results were expressed as FRAP units (the values calculated as the ratio of the concentrations of Trolox and the test compound resulting in the same effect.)

Assay [4] has as its system mouse brain homogenate. The assay is described as follows: Luminol chemiluminescence assay in mouse brain homogenate (TBHP-initiated). The settings on record: compound concentration 20 µM; mice brain homogenate. As to the method: (§2) The work was carried out in accordance with the EU Directive 2010/63/EU. Hybrid BDF1 mice (about 6 months old) were sacrificed by decapitation. Each brain was rapidly excised, frozen in liquid nitrogen, and stored at −80°C until use. The brains were thawed and homogenized using a Wisd WiseTis HG-15D homogenizer for 2 min in a buffer (0.01 M PBS, pH 7.4 or 0.1 M Tris-HCl, pH 7.4). Protein concentrations were determined by the Lowry method.
Luminol-dependent chemiluminescence produced by mouse brain homogenates was measured using a 1250 Luminometer (LKB Wallac, Turku, Finland) according to the assay by Di Meo et al. with minor modifications. The reaction mixture consisted of mouse brain homogenate (protein concentration 0.1 mg/mL) in 0.1 M Tris-HCl (Sigma-Aldrich), pH 7.4, luminol (Sigma-Aldrich) (0.05 mM), TBHP (Sigma-Aldrich) (0.073 M) and tested compounds at a concentration of 20 μM. This was placed in a light-proof luminometer chamber and the background reading was recorded. All measurements were carried out at 37°C. The gain control was set to give a reading of 10 mV using a built-in standard. The free radical content in mouse brain homogenate was evaluated by the change in the light sum (the area under the kinetic curve of luminescence intensity for the entire luminescence time). All compounds were examined at least in triplicate. The effects of tested compounds were measured as the percentage decrease in the light sum relative to the control (a sample with no compound added).

In assay [5] the test system is mouse brain homogenate. Briefly: TBARS assay, spontaneous lipid peroxidation in mouse brain homogenate. The following applies: read-out: Inhibition of Spontaneous Lipid Peroxidation in Mice Brain Homogenate, TBARS Assay, IC50. As to the method: as §2
The procedure was performed in accordance with the method of Ohkawa et al. with minor modifications. Briefly, mouse brain homogenate (protein concentration 1 mg/mL) in PBS (0.1 M, pH 7.4) was incubated for 30 min at 37°C with tested conjugates, and the reaction was terminated by addition of 0.4 mL of 17% (w/v) trichloroacetic acid (Sigma-Aldrich). Following centrifugation for 20 min at 1300× g, 0.5 mL of 0.8% (w/v) of TBA (Sigma-Aldrich) was added to 1 mL of supernatant, heated for 30 min at 95°C and then cooled to RT. The optical density of the TBARS, which corresponds to the produced MDA, was measured at 532 nm against a blank using an Agilent Cary 60 UV-Vis spectrophotometer (Agilent, Santa Clara, CA, USA). The MDA concentration was calculated using an extinction coefficient of 1.56 × 10^5 M^−1cm^−1. Trolox and BHT were used as reference antioxidants. Compounds were dissolved in DMSO (Sigma-Aldrich) and tested in a concentration range 0.01–100 μM. All compounds were examined at least in triplicate.

The test system of assay [6] is AChE-induced Aβ aggregation. Further details: method as in PMID 12527333. The settings on record: at 100 μM; cited from earlier work.

T1 sequence (P81908 whole entry): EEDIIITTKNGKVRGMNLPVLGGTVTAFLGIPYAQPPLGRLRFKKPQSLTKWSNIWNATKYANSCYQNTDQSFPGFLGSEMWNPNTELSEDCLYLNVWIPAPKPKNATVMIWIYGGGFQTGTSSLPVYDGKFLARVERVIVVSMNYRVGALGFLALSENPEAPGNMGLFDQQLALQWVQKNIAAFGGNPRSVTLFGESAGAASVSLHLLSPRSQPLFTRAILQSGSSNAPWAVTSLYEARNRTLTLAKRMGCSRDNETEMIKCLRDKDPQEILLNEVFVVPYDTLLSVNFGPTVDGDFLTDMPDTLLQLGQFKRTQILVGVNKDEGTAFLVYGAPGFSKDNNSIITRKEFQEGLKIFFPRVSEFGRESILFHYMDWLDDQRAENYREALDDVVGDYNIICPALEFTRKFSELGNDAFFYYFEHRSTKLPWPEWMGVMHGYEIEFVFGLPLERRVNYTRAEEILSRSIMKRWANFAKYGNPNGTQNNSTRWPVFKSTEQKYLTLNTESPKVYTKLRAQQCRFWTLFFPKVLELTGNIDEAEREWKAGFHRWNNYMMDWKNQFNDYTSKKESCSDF
T3 sequence (O42275 24-633): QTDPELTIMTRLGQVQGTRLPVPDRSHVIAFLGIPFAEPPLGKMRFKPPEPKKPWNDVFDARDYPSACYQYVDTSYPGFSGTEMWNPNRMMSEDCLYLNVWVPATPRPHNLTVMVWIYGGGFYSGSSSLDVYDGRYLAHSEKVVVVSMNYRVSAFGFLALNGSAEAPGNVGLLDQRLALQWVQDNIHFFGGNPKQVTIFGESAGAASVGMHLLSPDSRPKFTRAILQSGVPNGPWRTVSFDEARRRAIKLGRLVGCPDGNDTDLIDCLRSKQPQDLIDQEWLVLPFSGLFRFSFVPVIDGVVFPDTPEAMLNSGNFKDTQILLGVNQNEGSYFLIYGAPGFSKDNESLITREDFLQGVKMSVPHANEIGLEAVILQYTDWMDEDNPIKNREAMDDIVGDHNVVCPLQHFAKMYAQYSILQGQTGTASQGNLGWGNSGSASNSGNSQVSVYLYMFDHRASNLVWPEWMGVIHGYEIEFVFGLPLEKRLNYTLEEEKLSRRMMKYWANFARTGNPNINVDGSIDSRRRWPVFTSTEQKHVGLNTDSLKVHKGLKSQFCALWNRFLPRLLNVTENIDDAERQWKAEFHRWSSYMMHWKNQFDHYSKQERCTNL
T2 sequence (P22303 32-617 isoform P22303-2 limits assumed): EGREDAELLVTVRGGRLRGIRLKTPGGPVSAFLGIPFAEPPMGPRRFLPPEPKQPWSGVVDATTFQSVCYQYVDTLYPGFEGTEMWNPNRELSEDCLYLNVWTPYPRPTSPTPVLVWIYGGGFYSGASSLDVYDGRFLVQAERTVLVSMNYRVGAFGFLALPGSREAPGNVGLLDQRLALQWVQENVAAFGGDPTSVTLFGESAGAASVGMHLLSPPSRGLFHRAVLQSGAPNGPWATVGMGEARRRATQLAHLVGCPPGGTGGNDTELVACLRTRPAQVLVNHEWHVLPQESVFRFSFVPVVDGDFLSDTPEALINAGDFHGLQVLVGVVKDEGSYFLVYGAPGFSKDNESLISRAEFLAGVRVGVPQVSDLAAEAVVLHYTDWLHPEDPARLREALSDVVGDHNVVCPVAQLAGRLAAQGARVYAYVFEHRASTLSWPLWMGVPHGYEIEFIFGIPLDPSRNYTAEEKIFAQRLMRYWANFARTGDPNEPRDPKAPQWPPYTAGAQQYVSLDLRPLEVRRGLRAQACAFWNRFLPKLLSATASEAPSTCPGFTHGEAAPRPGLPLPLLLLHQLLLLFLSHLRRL

With `O=C(CCCCC1CCSS1)NCCCNc1c2c(nc3cc(Cl)ccc13)CCCC2` (stereo not drawn) [lipocrine], the IC50 with AChE was 0.000253 µM; in [1] it was 45 µM.
Regarding `CC(C)(C)c1cc(C=NCCNc2c3c(nc4ccccc24)CCC3)cc(C(C)(C)C)c1O` [Compound 7a, 2,6-Di-tert-butyl-4-{[2-(2,3-dihydro-1H-cyclopenta[b]quinolin-9-ylamino)-ethylimino]-methyl}-phenol], on Equine serum BChE (IC50 AChE / IC50 BChE), the “Selectivity for BChE” value came out at 2.5. For the same compound, the half-inhibitory concentration (IC50) on Equine serum BChE (mean ± SEM, n = 3, n.a. = not active, read-out: Equine Serum BChE, IC50) is 1.92 ± 0.11 µM; on Human erythrocyte AChE, 4.86 ± 0.01 µM; in assay [2] it was 22.3 ± 1.5 µM; in the assay on mouse brain homogenate [5] it was 19.6 ± 0.8 µM. Also, the “Porcine Liver CES, (%) inhibition” value with Porcine liver CES worked out at 26.1 ± 0.7%. In addition, the “Displacement of Propidium from EeAChE PAS (%)” value at EeAChE PAS is 18.1 ± 1.6%. Moreover, the “Ferric Reducing Antioxidant Power, FRAP Units” value in [3] stood at 0.51 ± 0.03. In addition, in the assay with mouse brain homogenate [4], the “Radical Scavenging Capacity in Luminol Chemiluminescence Assay, Luminescence Inhibition, %” value amounted to 94.0 ± 0.2%.
`CC[N+](C)(CC)CCC[n+]1c(-c2ccccc2)c2cc(N)ccc2c2ccc(N)cc21` [Propidium, propidium]: the “Decrease in AChE-induced Aβ aggregation” value in assay [6] is 82%.

One may read the IC50 as the point on the concentration scale where inhibition reaches its midpoint.
